Results on 54 molecules are retold here after patent publication US8778923B2, “GLP-1 receptor modulators” (Receptos, Inc., priority 2011, dated 2014).

T1 sequence (P43220 24-463): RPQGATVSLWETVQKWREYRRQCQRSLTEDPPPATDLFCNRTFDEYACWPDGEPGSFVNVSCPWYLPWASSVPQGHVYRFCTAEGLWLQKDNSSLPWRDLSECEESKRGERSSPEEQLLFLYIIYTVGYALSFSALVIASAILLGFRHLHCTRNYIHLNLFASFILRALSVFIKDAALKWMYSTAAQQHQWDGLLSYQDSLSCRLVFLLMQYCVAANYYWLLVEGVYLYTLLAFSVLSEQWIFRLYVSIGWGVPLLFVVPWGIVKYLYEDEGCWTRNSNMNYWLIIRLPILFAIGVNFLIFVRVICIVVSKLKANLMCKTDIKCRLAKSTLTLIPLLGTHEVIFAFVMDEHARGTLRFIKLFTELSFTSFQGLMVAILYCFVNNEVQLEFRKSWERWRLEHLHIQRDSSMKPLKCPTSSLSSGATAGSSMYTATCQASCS
T1 sequence (P01275 100-127 partner limits assumed): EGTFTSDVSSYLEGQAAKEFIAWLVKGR

This experiment concerns the target T1, GLP-1R (Homo sapiens, UniProt P43220).
T1 construct: host or cells: CRE-bla CHO-K1
The experiment can be described thus: EC20 GLP-1(9-36) PAM cAMP assay: dose response of compound in the presence of fixed concentration of GLP-1(9-36). In kind it is cell-based. The conditions noted are these: GLP-1R CRE-bla CHO-K1 cells, compound dose response in presence of fixed concentration of GLP-1(9-36). The essentials: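 GLP-1R CRE-bla CHO-K1 cells in HBSS/10 mM Hepes/0.1% BSA pH 7.4 with IBMX got a 12-point compound dose response plus fixed EC20 GLP-1(9-36), 30 min at 37 °C. cAMP measured by HitHunter luminescence against a standard curve; EC50 and Emax by non-linear regression.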
In the case of `CC(C)Oc1ccc(-c2cnc(-c3ccc(C[C@H](NC(=O)c4ccc(C(C)(C)C)cc4)C(=O)O)cc3)nc2)cc1` [Compound 200], the EC50 lay in the range of 2500 to 5000 nM. Under `CN(C)c1ccc(-c2cnc(-c3ccc(C[C@H](NC(=O)c4ccc(C(C)(C)C)cc4)C(=O)O)cc3)nc2)cc1` [Compound 201] stands 2500 to 5000 nM; under `CN(C)c1cccc(-c2cnc(-c3ccc(C[C@H](NC(=O)c4ccc(C(C)(C)C)cc4)C(=O)O)cc3)nc2)c1` [Compound 202], 5000 to 10000 nM.

For `Cc1ccc(-c2cnc(-c3ccc(C[C@H](NC(=O)c4ccc(C(C)(C)C)cc4)C(=O)O)cc3)nc2)cc1` [Compound 203], the EC50 fell in the range of 5000 to 10000 nM. Consider `CC(C)(C)c1ccc(C(=O)N[C@@H](Cc2ccc(-c3ncc(-c4cccc(C(C)(C)C)c4)cn3)cc2)C(=O)O)cc1` [Compound 204], for which the EC50 was in the range of 2500 to 5000 nM. The figure for `CC(C)(C)c1ccc(C(=O)N[C@@H](Cc2ccc(-c3ncc(-c4ccc(-c5ccccc5)cc4)cn3)cc2)C(=O)O)cc1` [Compound 205] is 800 to 2500 nM. For the molecule `CC(C)(C)c1ccc(C(=O)N[C@@H](Cc2ccc(-c3ncc(-c4ccc(F)cc4)cn3)cc2)C(=O)O)cc1` [Compound 206], the concentration giving a half-maximal response (EC50) lay in the range of 2500 to 5000 nM. Consider `CC(C)(C)c1ccc(C(=O)N[C@@H](Cc2ccc(-c3ncc(-c4cccc(F)c4)cn3)cc2)C(=O)O)cc1` [Compound 207], for which the EC50 is 2500 to 5000 nM.

For `CC(C)(C)c1ccc(C(=O)N[C@@H](Cc2ccc(-c3ncc(-c4ccc(F)cc4F)cn3)cc2)C(=O)O)cc1` [Compound 208], the EC50 was in the range of 2500 to 5000 nM. For `CC(C)(C)c1ccc(C(=O)N[C@@H](Cc2ccc(-c3ncc(-c4ccc(C(F)(F)F)cc4)cn3)cc2)C(=O)O)cc1` [Compound 209], the EC50 lay in the range of 800 to 2500 nM. `CC(C)(C)c1ccc(C(=O)N[C@@H](Cc2ccc(-c3ncc(-c4cccc(C(F)(F)F)c4)cn3)cc2)C(=O)O)cc1` [Compound 210]: the EC50 was 2500 to 5000 nM. Under `CC(C)(C)c1ccc(C(=O)N[C@@H](Cc2ccc(-c3ncc(-c4ccc(Cl)cc4)cn3)cc2)C(=O)O)cc1` [Compound 211] stands 5000 to 10000 nM. `CC(C)(C)c1ccc(C(=O)N[C@@H](Cc2ccc(-c3ncc(-c4cccc(Cl)c4)cn3)cc2)C(=O)O)cc1` [Compound 212]: the EC50 fell in the range of 5000 to 10000 nM. The figure for `CC(C)(C)c1ccc(C(=O)N[C@@H](Cc2ccc(-c3ncc(-c4ccc(Cl)c(Cl)c4)cn3)cc2)C(=O)O)cc1` [Compound 213] is 2500 to 5000 nM; for `COc1ccc(-c2cnc(-c3ccc(C[C@H](NC(=O)c4ccc(C(C)(C)C)cc4)C(=O)O)cc3)nc2)cc1OC` [Compound 214] it is 2500 to 5000 nM. For `COc1cccc(-c2cnc(-c3ccc(C[C@H](NC(=O)c4ccc(C(C)(C)C)cc4)C(=O)O)cc3)nc2)c1` [Compound 215], the EC50 was 2500 to 5000 nM. As for `CC(C)(C)c1ccc(C(=O)N[C@@H](Cc2ccc(-c3ncc(-c4cccc(N5CCCCC5)c4)cn3)cc2)C(=O)O)cc1` [Compound 216], the EC50 is 2500 to 5000 nM. `Cc1cccc(-c2cnc(-c3ccc(C[C@H](NC(=O)c4ccc(C(C)(C)C)cc4)C(=O)O)cc3)nc2)c1` [Compound 217]: the EC50 lay within 5000 to 10000 nM. `CC(C)(C)c1ccc(C(=O)N[C@@H](Cc2ccc(-c3ncc(-c4cccc(-c5ccccc5)c4)cn3)cc2)C(=O)O)cc1` [Compound 218]: the concentration giving a half-maximal response (EC50) is 2500 to 5000 nM. Under `CCCCCCCOc1cccc(-c2cnc(-c3ccc(C[C@H](NC(=O)c4ccc(C(C)(C)C)cc4)C(=O)O)cc3)nc2)c1` [Compound 219] stands 800 to 2500 nM. Turning to `CCCCCCCOc1ccccc1-c1cnc(-c2ccc(C[C@H](NC(=O)c3ccc(C(C)(C)C)cc3)C(=O)O)cc2)nc1` [Compound 220], the EC50 was 2500 to 5000 nM.

Turning to `CCOc1ccc(-c2cnc(-c3ccc(C[C@H](NC(=O)c4ccc(C(C)(C)C)cc4)C(=O)O)cc3)nc2)cc1` [Compound 221], the EC50 lay within 2500 to 5000 nM. Under `CCCOc1ccc(-c2cnc(-c3ccc(C[C@H](NC(=O)c4ccc(C(C)(C)C)cc4)C(=O)O)cc3)nc2)cc1` [Compound 222] stands 800 to 2500 nM. With `CCCCOc1ccc(-c2cnc(-c3ccc(C[C@H](NC(=O)c4ccc(C(C)(C)C)cc4)C(=O)O)cc3)nc2)cc1` [Compound 223], the EC50 is 800 to 2500 nM.

Regarding `CCCCCOc1ccc(-c2cnc(-c3ccc(C[C@H](NC(=O)c4ccc(C(C)(C)C)cc4)C(=O)O)cc3)nc2)cc1` [Compound 224], the EC50 fell in the range of 800 to 2500 nM.

`CCCCCCOc1ccc(-c2cnc(-c3ccc(C[C@H](NC(=O)c4ccc(C(C)(C)C)cc4)C(=O)O)cc3)nc2)cc1` [Compound 225, (S)-2-(4-(tert-butyl)benzamido)-3-(4-(5-(4-(hexyloxy)phenyl)pyrimidin-2-yl)phenyl)propanoic acid]: the EC50 is below 800 nM. The figure for `CC(C)(C)c1ccc(C(=O)N[C@@H](Cc2ccc(-c3ncc(-c4ccc5ccccc5c4)cn3)cc2)C(=O)O)cc1` [Compound 226] is 800 to 2500 nM; for `Cc1ccc(-c2cnc(-c3ccc(C[C@H](NC(=O)c4ccc(C(C)(C)C)cc4)C(=O)O)cc3)nc2)cc1C` [Compound 227] it is 2500 to 5000 nM.

In the case of `CCCc1ccc(-c2cnc(-c3ccc(C[C@H](NC(=O)c4ccc(C(C)(C)C)cc4)C(=O)O)cc3)nc2)cc1` [Compound 228], the EC50 lay in the range of 800 to 2500 nM. For `Cc1ccc(-c2ccc(-c3cnc(-c4ccc(C[C@H](NC(=O)c5ccc(C(C)(C)C)cc5)C(=O)O)cc4)nc3)cc2)cc1` [Compound 229], the EC50 was 800 to 2500 nM. The figure for `Cc1cccc(-c2ccc(-c3cnc(-c4ccc(C[C@H](NC(=O)c5ccc(C(C)(C)C)cc5)C(=O)O)cc4)nc3)cc2)c1` [Compound 230] is 800 to 2500 nM; for `CC(C)(C)c1ccc(C(=O)N[C@@H](Cc2ccc(-c3ncc(-c4ccc(COc5ccccc5)cc4)cn3)cc2)C(=O)O)cc1` [Compound 231] it is 5000 to 10000 nM. Turning to `Cc1cc(-c2cnc(-c3ccc(C[C@H](NC(=O)c4ccc(C(C)(C)C)cc4)C(=O)O)cc3)nc2)ccc1N(C)C` [Compound 232], the EC50 was 800 to 2500 nM. Consider `CNc1ccc(-c2cnc(-c3ccc(C[C@H](NC(=O)c4ccc(C(C)(C)C)cc4)C(=O)O)cc3)nc2)cc1` [Compound 233], for which the EC50 lay in the range of 2500 to 5000 nM.

Turning to `CNc1cccc(-c2cnc(-c3ccc(C[C@H](NC(=O)c4ccc(C(C)(C)C)cc4)C(=O)O)cc3)nc2)c1` [Compound 234], the EC50 lay in the range of 5000 to 10000 nM. `CC(C)Nc1ccc(-c2cnc(-c3ccc(C[C@H](NC(=O)c4ccc(C(C)(C)C)cc4)C(=O)O)cc3)nc2)cc1` [Compound 235]: the concentration giving a half-maximal response (EC50) was in the range of 2500 to 5000 nM.

Consider `CC(C)(C)c1ccc(C(=O)N[C@@H](Cc2ccc(-c3ncc(-c4ccc5c(c4)CCCN5)cn3)cc2)C(=O)O)cc1` [Compound 236], for which the EC50 is 5000 to 10000 nM.

Regarding `CCCCOc1ccc(-c2cnc(-c3ccc(C[C@H](NC(=O)c4ccc(C(C)(C)C)s4)C(=O)O)cc3)nc2)cc1` [Compound 237], the EC50 lay in the range of 800 to 2500 nM. As for `CCCCCOc1ccc(-c2cnc(-c3ccc(C[C@H](NC(=O)c4ccc(C(C)(C)C)s4)C(=O)O)cc3)nc2)cc1` [Compound 238], the EC50 was 800 to 2500 nM. As for `CCCCCCOc1ccc(-c2cnc(-c3ccc(C[C@H](NC(=O)c4ccc(C(C)(C)C)s4)C(=O)O)cc3)nc2)cc1` [Compound 239], the EC50 lay in the range of 800 to 2500 nM. With `CC(C)(C)c1ccc(C(=O)N[C@@H](Cc2ccc(-c3ncc(-c4ccc(C(F)(F)F)cc4)cn3)cc2)C(=O)O)s1` [Compound 240], the EC50 was 2500 to 5000 nM. As to `CC(C)Oc1ccc(-c2cnc(-c3ccc(C[C@H](NC(=O)c4ccc(C(C)(C)C)s4)C(=O)O)cc3)nc2)cc1` [Compound 241], the EC50 lay within 800 to 2500 nM. For `CC(C)c1ccc(-c2cnc(-c3ccc(C[C@H](NC(=O)c4ccc(C(C)(C)C)s4)C(=O)O)cc3)nc2)cc1` [Compound 242], the EC50 was 800 to 2500 nM. As to `CC(C)Cc1ccc(-c2cnc(-c3ccc(C[C@H](NC(=O)c4ccc(C(C)(C)C)s4)C(=O)O)cc3)nc2)cc1` [Compound 243], the EC50 lay within 800 to 2500 nM. The figure for `CC(C)(C)c1ccc(C(=O)N[C@@H](Cc2ccc(-c3ncc(-c4ccc(OC5CC5)cc4)cn3)cc2)C(=O)O)s1` [Compound 244] is 2500 to 5000 nM. The figure for `CC(C)(C)c1ccc(C(=O)N[C@@H](Cc2ccc(-c3ncc(-c4ccc5ccccc5c4)cn3)cc2)C(=O)O)s1` [Compound 245] is 800 to 2500 nM.

As for `Cc1ccc(-c2ccc(-c3cnc(-c4ccc(C[C@H](NC(=O)c5ccc(C(C)(C)C)s5)C(=O)O)cc4)nc3)cc2)cc1` [Compound 246], the EC50 was 800 to 2500 nM. Regarding `Cc1cccc(-c2ccc(-c3cnc(-c4ccc(C[C@H](NC(=O)c5ccc(C(C)(C)C)s5)C(=O)O)cc4)nc3)cc2)c1` [Compound 247], the EC50 was in the range of 800 to 2500 nM. With `CCCCCCCCCCOc1ccc(-c2cnc(-c3ccc(C[C@H](NC(=O)c4ccc(C(C)(C)C)s4)C(=O)O)cc3)nc2)cc1` [Compound 249, (S)-2-(5-(tert-butyl)thiophene-2-carboxamido)-3-(4-(5-(4-(decyloxy)phenyl)-pyrimidin-2-yl)phenyl)propanoic acid], the EC50 is 5000 to 10000 nM. Take `CCCCCCCCCCCCOc1ccc(-c2cnc(-c3ccc(C[C@H](NC(=O)c4ccc(C(C)(C)C)s4)C(=O)O)cc3)nc2)cc1` [Compound 250]: the EC50 fell in the range of 800 to 2500 nM. For the molecule `CCCCCCCCCCCCCCOc1ccc(-c2cnc(-c3ccc(C[C@H](NC(=O)c4ccc(C(C)(C)C)s4)C(=O)O)cc3)nc2)cc1` [Compound 251], the EC50 was 5000 to 10000 nM. The figure for `CCCCCCCCCCCCCCCCOc1ccc(-c2cnc(-c3ccc(C[C@H](NC(=O)c4ccc(C(C)(C)C)s4)C(=O)O)cc3)nc2)cc1` [Compound 252] is 5000 to 10000 nM; for `CC(C)(C)c1ccc(C(=O)N[C@@H](Cc2ccc(-c3ncc(N4CCC(C(C)(C)C)CC4)cn3)cc2)C(=O)O)cc1` [Compound 253, (S)-2-(4-(tert-butyl)benzamido)-3-(4-(5-(4-(tert-butyl)piperidin-1-yl)pyrimidin-2-yl)phenyl)propanoic acid] it is 2500 to 5000 nM.

Turning to `CCCCCCCN1CCN(c2cnc(-c3ccc(C[C@H](NC(=O)c4ccc(C(C)(C)C)cc4)C(=O)O)cc3)nc2)CC1` [Compound 254], the concentration giving a half-maximal response (EC50) is 800 to 2500 nM.
